Measured values reported in ChEMBL document CHEMBL1909046, “DrugMatrix in vitro pharmacology data”.

What was measured:
[1] = molecular target: T1, Alpha-2A adrenergic receptor (Homo sapiens, UniProt P08913); format: cell membranes, Sf9, Membrane; conditions: for Ki: read-out: Ki; for all read-outs here: in other assays of this panel Not Active means under 50% inhibition at 10 µM
T1 sequence (P08913 whole entry): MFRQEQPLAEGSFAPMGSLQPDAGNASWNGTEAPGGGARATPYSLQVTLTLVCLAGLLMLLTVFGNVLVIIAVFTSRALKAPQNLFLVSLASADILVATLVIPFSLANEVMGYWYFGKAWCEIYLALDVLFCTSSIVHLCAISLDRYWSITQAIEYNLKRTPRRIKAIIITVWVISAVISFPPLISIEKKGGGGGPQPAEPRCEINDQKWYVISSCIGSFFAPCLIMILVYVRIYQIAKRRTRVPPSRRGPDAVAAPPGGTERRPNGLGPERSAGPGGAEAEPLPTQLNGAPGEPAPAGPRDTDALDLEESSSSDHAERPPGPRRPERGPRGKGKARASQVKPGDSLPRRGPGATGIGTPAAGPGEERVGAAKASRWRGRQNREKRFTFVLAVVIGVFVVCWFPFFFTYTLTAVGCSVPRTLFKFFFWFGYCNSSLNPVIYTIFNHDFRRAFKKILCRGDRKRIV

[2] = molecular target: Sigma non-opioid intracellular receptor 1 (Homo sapiens, UniProt Q99720); assay: DRUGMATRIX: Sigma1 radioligand binding (ligand: [3H] Haloperidol); format: cell membranes, Jurkat, Membrane; conditions: Not Active = under 50% inhibition at 10 µM
[3] = molecular target: Prostaglandin G/H synthase 1 (Homo sapiens, UniProt P23219); assay: biochemical; format: tissue-based, Platelet; conditions: platelet;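 note: inhibition of COX-1 enzyme activity, with arachidonic acid supplied as substrate; in other assays of this panel Not Active means under 50% inhibition at 10 µM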
[4] = molecular target: T2, Cathepsin G (Homo sapiens, UniProt P08311); format: tissue-based; conditions: neutrophil;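 note: inhibition of Cathepsin G enzyme activity, tested on an AMC-conjugated peptide substrate; in other assays of this panel Not Active means under 50% inhibition at 10 µM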
T2 sequence (P08311 whole entry): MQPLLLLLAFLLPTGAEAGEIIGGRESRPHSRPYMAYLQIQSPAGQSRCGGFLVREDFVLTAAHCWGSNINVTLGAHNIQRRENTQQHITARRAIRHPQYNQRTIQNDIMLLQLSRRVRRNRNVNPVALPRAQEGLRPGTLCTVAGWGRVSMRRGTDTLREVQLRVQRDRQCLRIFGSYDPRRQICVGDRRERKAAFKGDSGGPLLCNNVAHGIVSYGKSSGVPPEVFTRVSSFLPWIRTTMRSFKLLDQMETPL

[5] = molecular target: Receptor tyrosine-protein kinase erbB-2 (Homo sapiens, UniProt P04626); assay: biochemical; format: cell-based, Insect cells;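 note: inhibition of HER2 kinase enzyme activity, measured with Poly(Glu:Tyr) as the phosphorylation substrate; in other assays of this panel Not Active means under 50% inhibition at 10 µM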
[6] = molecular target: Acetylcholinesterase (Homo sapiens, UniProt P22303); assay: DRUGMATRIX: Acetylcholinesterase enzyme inhibition (substrate: acetylthiocholine); format: cell-based, HEK293; conditions: Not Active = under 50% inhibition at 10 µM
Chain of Acetylcholinesterase (P22303 whole entry): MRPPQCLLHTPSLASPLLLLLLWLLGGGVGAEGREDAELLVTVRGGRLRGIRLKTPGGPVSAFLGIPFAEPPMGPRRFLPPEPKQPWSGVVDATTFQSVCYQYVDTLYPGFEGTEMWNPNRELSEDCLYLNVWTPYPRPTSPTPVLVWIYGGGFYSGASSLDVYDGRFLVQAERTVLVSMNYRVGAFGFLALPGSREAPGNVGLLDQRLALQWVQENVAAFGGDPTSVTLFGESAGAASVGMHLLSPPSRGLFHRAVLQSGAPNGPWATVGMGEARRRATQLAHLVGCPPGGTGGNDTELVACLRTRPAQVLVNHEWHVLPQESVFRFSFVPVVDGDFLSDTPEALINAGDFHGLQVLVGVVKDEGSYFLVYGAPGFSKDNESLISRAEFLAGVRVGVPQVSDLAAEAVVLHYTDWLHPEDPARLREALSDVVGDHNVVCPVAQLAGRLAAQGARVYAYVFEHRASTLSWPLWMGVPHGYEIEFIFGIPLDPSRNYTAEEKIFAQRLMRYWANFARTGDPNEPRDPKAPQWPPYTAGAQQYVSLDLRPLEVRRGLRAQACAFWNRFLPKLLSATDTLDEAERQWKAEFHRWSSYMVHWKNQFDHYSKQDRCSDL

Chain of Prostaglandin G/H synthase 1 (P23219 whole entry): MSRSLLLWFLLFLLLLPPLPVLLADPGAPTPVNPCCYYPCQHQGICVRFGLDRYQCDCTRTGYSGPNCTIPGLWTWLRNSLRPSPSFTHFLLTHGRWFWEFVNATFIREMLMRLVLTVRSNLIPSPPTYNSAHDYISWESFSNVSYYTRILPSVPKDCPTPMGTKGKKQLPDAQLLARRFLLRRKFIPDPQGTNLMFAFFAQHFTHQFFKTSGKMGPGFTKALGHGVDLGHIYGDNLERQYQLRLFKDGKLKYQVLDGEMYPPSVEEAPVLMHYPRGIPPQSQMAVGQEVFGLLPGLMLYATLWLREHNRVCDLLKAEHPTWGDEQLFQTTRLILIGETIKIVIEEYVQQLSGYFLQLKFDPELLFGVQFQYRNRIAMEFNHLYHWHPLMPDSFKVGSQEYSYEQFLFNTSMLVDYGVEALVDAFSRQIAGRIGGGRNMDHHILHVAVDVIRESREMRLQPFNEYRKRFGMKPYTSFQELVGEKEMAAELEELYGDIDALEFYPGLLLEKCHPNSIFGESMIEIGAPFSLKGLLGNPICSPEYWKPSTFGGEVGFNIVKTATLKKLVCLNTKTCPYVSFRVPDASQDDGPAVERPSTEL
Chain of Sigma non-opioid intracellular receptor 1 (Q99720 whole entry): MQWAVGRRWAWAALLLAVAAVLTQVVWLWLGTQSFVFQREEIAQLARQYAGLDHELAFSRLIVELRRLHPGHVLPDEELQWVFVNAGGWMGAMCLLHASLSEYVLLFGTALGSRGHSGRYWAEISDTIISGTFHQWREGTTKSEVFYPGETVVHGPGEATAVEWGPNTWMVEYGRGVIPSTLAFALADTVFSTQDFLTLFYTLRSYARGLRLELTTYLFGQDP

Compound | IC50 ([1]; sf9) | IC50 ([2]; jurkat) | IC50 [3] | IC50 [4] | IC50 ([5]; insect cells) | IC50 ([6]; hek293) | further results
CCOC(N)=O | Not Active | Not Active | Not Active | Not Active | Not Active | Not Active | 
COc1ccc(CN2CCNCC2)c(OC)c1OC [TRIMETAZIDINE] | Not Active | Not Active | Not Active | Not Active | Not Active | Not Active | 
CC(=O)O[C@H]1C[C@@H]2CC[C@@H]3[C@H](CC[C@@]4(C)[C@H]3C[C@H]([N+]3(C)CCCCC3)[C@@H]4OC(C)=O)[C@@]2(C)C[C@@H]1N1CCCCC1.[Br-] [VECURONIUM BROMIDE] | Not Active | Not Active | Not Active | Not Active | Not Active | Not Active | 
C[C@@H]1C[C@H]2[C@@H]3CCC4=CC(=O)C=C[C@]4(C)C3=CC[C@]2(C)[C@H]1C(=O)CN1CCN(c2cc(N3CCCC3)nc(N3CCCC3)n2)CC1 [TIRILAZAD] | Not Active | Not Active | Not Active | Not Active | Not Active | Not Active | 
CC(C)OC(=O)C(C)(C)Oc1ccc(C(=O)c2ccc(Cl)cc2)cc1 [FENOFIBRATE] | Not Active | Not Active | Not Active |  | Not Active |  | Ki [4]: Not Active; IC50 ([6]; read-out: IC50): 15600 nM
C[C@@H](O)[C@H]1C(=O)N2C(C(=O)O)=C(S[C@@H]3CN[C@H](C(=O)N(C)C)C3)[C@H](C)[C@H]12 [MEROPENEM] | Not Active | Not Active | Not Active | Not Active | Not Active | Not Active | 
CC[C@@H](CO)NC(=O)[C@@H]1C=C2c3cccc4c3c(cn4C)C[C@H]2N(C)C1 [METHYSERGIDE] |  |  | Not Active | Not Active | Not Active | Not Active | IC50 ([1]; read-out: IC50): 1630 nM; Ki [1]: 611 nM
CC(C)(C)NC[C@H](O)COc1nsnc1N1CCOCC1 [TIMOLOL] | Not Active | Not Active | Not Active | Not Active | Not Active | Not Active | 
CCN(CC)CC#CCOC(=O)C(O)(c1ccccc1)C1CCCCC1 (configuration not stated) [OXYBUTYNIN] | Not Active |  | Not Active | Not Active | Not Active | Not Active | IC50 ([2]; read-out: IC50): 24.2 nM; Ki ([2]; read-out: Ki): 10.2 nM
O=c1[nH]c2ccccc2n1CCCN1CCC(n2c(=O)[nH]c3cc(Cl)ccc32)CC1 [DOMPERIDONE] |  | Not Active | Not Active | Not Active | Not Active | Not Active | 
CC1=C(CC(=O)O)c2cc(F)ccc2/C1=C\c1ccc(S(C)(=O)=O)cc1 [EXISULIND] | Not Active | Not Active | Not Active | Not Active | Not Active | Not Active | 
COc1ncnc(NS(=O)(=O)c2ccc(N)cc2)c1OC [SULFADOXINE] | Not Active | Not Active | Not Active | Not Active | Not Active | Not Active | 
CC(=O)Nc1nnc(S(N)(=O)=O)s1 [ACETAZOLAMIDE] | Not Active | Not Active | Not Active | Not Active | Not Active | Not Active | 
CO[C@H]1C[C@@H]2CC[C@@H](C)[C@@](O)(O2)C(=O)C(=O)N2CCCC[C@H]2C(=O)O[C@H]([C@H](C)C[C@@H]2CC[C@@H](O)[C@H](OC)C2)CC(=O)[C@H](C)/C=C(\C)[C@@H](O)[C@@H](OC)C(=O)[C@H](C)C[C@H](C)/C=C/C=C/C=C/1C [SIROLIMUS] | Not Active | Not Active | Not Active | Not Active | Not Active | Not Active | 
OCCN1CCN(CCCN2c3ccccc3Sc3ccc(C(F)(F)F)cc32)CC1 [FLUPHENAZINE] |  |  | Not Active | Not Active |  | Not Active | IC50 ([1]; read-out: IC50): 215 nM; Ki [1]: 80 nM; IC50 ([2]; read-out: IC50): 20 nM; Ki ([2]; read-out: Ki): 8.57 nM; IC50 ([5]; read-out: IC50): 19600 nM
Cc1cn([C@H]2C[C@H](N=[N+]=[N-])[C@@H](CO)O2)c(=O)[nH]c1=O [ZIDOVUDINE] | Not Active | Not Active | Not Active | Not Active | Not Active | Not Active | 
THIMEROSAL |  | Not Active | Not Active | Not Active | Not Active | Not Active | IC50 ([1]; sf9, read-out: IC50): 532 nM; Ki ([1]; sf9): 200 nM; Ki ([2]; jurkat): Not Active; Ki [3]: Not Active; Ki [4]: Not Active; Ki ([5]; insect cells): Not Active; Ki ([6]; hek293): Not Active

Compound | IC50 ([1]; sf9) | IC50 ([2]; jurkat) | IC50 [3] | IC50 [4] | IC50 ([5]; insect cells) | IC50 ([6]; hek293) | further results
NC[C@H]1O[C@H](O[C@H]2[C@H](O)[C@@H](O[C@H]3O[C@H](CO)[C@@H](O)[C@H](N)[C@H]3O)[C@H](N)C[C@@H]2N)[C@H](N)C[C@@H]1O [TOBRAMYCIN] | Not Active | Not Active | Not Active | Not Active | Not Active | Not Active | 
O=P(O)(O)C(O)(Cc1cccnc1)P(=O)(O)O [RISEDRONIC ACID] | Not Active | Not Active | Not Active | Not Active | Not Active | Not Active | 
Nc1ccc(S(=O)(=O)Nc2nccs2)cc1 [SULFATHIAZOLE] | Not Active | Not Active | Not Active | Not Active | Not Active | Not Active | 
Nc1ccc(S(=O)(=O)Nc2ncccn2)cc1 [SULFADIAZINE] | Not Active | Not Active | Not Active | Not Active | Not Active | Not Active | 
CN[C@@H]1[C@H](O)[C@H](NC)[C@H]2O[C@@]3(O)C(=O)C[C@@H](C)O[C@H]3O[C@@H]2[C@H]1O [SPECTINOMYCIN] | Not Active | Not Active | Not Active | Not Active | Not Active | Not Active | 
COc1cc(N)nc2[nH]c(-c3ccc(F)cc3)c(-c3ccncc3)c12 | Not Active | Not Active | Not Active | Not Active | Not Active | Not Active | 
CN(CCOc1ccc(CC2SC(=O)NC2=O)cc1)c1ccccn1 (configuration not stated) [ROSIGLITAZONE] | Not Active | Not Active | Not Active | Not Active | Not Active | Not Active | 
C=C(C)[C@H]1Cc2c(ccc3c2O[C@@H]2COc4cc(OC)c(OC)cc4[C@@H]2C3=O)O1 [ROTENONE] | Not Active | Not Active | Not Active | Not Active | Not Active | Not Active | 
O=c1n(CCCN2CCN(c3cccc(Cl)c3)CC2)nc2ccccn12 [TRAZODONE] |  |  | Not Active | Not Active | Not Active | Not Active | IC50 ([2]; read-out: IC50): 2200 nM; Ki ([2]; read-out: Ki): 926 nM
O=C(O)C(Cl)(Cl)Cl [TRICHLOROACETIC ACID] | Not Active | Not Active | Not Active | Not Active | Not Active | Not Active | 
CNS(=O)(=O)Cc1ccc2[nH]cc(CCN(C)C)c2c1 | Not Active | Not Active | Not Active | Not Active | Not Active | Not Active | 
CCCc1nn(C)c2c(=O)[nH]c(-c3cc(S(=O)(=O)N4CCN(C)CC4)ccc3OCC)nc12 | Not Active | Not Active | Not Active | Not Active | Not Active | Not Active | 
Nc1nc2c(c(=O)[nH]1)N(C=O)C(CNc1ccc(C(=O)N[C@@H](CCC(=O)O)C(=O)O)cc1)CN2 (some centres not stated) [LEUCOVORIN] | Not Active | Not Active | Not Active | Not Active | Not Active | Not Active | 
CCS(=O)(=O)CCn1c([N+](=O)[O-])cnc1C [TINIDAZOLE] | Not Active | Not Active | Not Active | Not Active | Not Active | Not Active | 
C#CCN(C)[C@H](C)Cc1ccccc1 [SELEGILINE] |  | Not Active | Not Active | Not Active | Not Active | Not Active | IC50 ([1]; read-out: IC50): 1800 nM; Ki [1]: 674 nM
COc1cc(C(=O)NS(=O)(=O)c2ccccc2C)ccc1Cc1cn(C)c2ccc(NC(=O)OC3CCCC3)cc12 [ZAFIRLUKAST] | Not Active | Not Active | Not Active | Not Active | Not Active | Not Active | 
